Columns and labels:
mouse LSECs (mLSECs) = assay: Endocytosis competition of FITC-fNLPNTL uptake, fluorescence microscopy; assay type: cell-based; conditions: primary mLSECs, 4 h serum starved, 100 μg/ml competitor pre-incubated 30 min, then 20 μg/ml FITC-fNLPNTL 60 min at 37°C
Description: Mouse Heps (mHeps) and LSECs (mLSECs) were prepared by collagenase (Liberase) perfusion of mouse livers, followed by a low-speed differential centrifugation to separate Heps, and density sedimentation of the non-Heps enriched in the supernatant, on 25%– 45% Percoll gradients to collect LSECs and Kupffer cells (KCs), as described. Mouse LSECs were obtained after a panning step of 8 min at 37°C to remove KCs. The purity of mLSECs was between 90 and 95% as judged by fenestration assessed by scanning electron microscopy and positive immunostaining for the LSEC specific marker, stabilin 2. The remaining 5–10% of cells in these cultures represented KCs/monocytes and stellate cells. […]
(§1) Primary cultures of mouse and human Heps and LSECs were seeded on Permanox chamber slides coated with human fibronectin. […] After removal of unbound ligand by extensive washing with PBS, the cultures were fixed with 4% PFA and processed for fluorescence microscopy as described above.
(§2) After the removal of unbound ligands by extensive washing with PBS, the cultures were fixed with 4% PFA and processed for fluorescence microscopy.
(§3) Primary cultures of hLSECs (A) and mLSECs (B) were established on Permanox chamber slides coated with human fibronectin. […] After removal of unbound ligands by extensive washing with PBS, the cultures were fixed with 4% PFA and processed for fluorescence microscopy.

human LSECs (hLSECs) = assay: as above; assay type: cell-based; conditions: primary hLSECs, 4 h serum starved, 100 μg/ml competitor pre-incubated 30 min, then 20 μg/ml FITC-fNLPNTL 60 min at 37°C
Text: Human hepatocytes (hHeps) and LSECs (hLSECs) were isolated from encapsulated liver resections based on a method described elsewhere. The procedure involves collagenase perfusion through cut blood vessels exposed on the surface of the liver resection. hHeps were isolated by low speed differential centrifugation, and the hLSECs purified by immunomagnetic isolation using mouse anti-human CD32 (Fitzgeralg Industries International INC, North Acton, MA, USA) and Dynabeads® Sheep anti-mouse IgG (Thermo Scientific, Oslo, Norway). The viability of hLSECs as judged by trypan blue exclusion was 95%, and the yield of hLSECs varied from 1 to 10 million depending on the size of the liver resection. […]
as §1, §2, §3

[1] = Anatomical distribution of i.v. injected 125I-labeled peptides; assay type: in vivo; conditions: C57BL/6 mice, 8 μg 125I-labeled peptide i.v., n = 2 per group
Description: Unconjugated fNLPNTL and FITC- fNLPNTL were reconstituted at a concentration of 4 mg/ml in DMSO. […] of the solution, corresponding to 100 μg of each peptide was further diluted in PBS to a final volume of 200 μl and incubated with carrier-free Na^125I for 1h at RT, using Iodogen as described by the manufacturer. The labeled peptides were separated from unbound ^125I by elution with PBS through PD-10 columns. The specific radioactivities were 0.98 x 10^6 cpm/μg and 0.12 x 10^6 cpm/μg for ^125I-FITC-fNLPNTL and ^125I-fNLPNTL, respectively.
Prior to experiments, mice were weighed and pre-warmed in a temperature controlled chamber to stimulate dilation of the tail veins. […] The amount of radioactivity was measured in all organs and in the blood sample. The radioactivity per total volume of blood was calculated considering that the average amount of blood in a mouse is approximately 58.5 ml per kg of bodyweight (according to the National Centre for the Replacement Refinement & Reduction of Animals in Research). The amount of tracer recovered was the sum of radioactivity of individual organs, carcass and the radioactivity calculated in total blood volume.
Fig 2 Anatomical distribution of i.v. administered fNLPNTL. […] Blood, internal organs and carcass were harvested and analyzed for radioactivity. […]

mouse Heps (mHeps) = assay: Endocytosis competition of FITC-fNLPNTL uptake, fluorescence microscopy; assay type: cell-based; conditions: primary mHeps, 4 h serum starved, 100 μg/ml competitor pre-incubated 30 min, then 20 μg/ml FITC-fNLPNTL 60 min at 37°C
[2] = system: human hepatocytes (hHeps); assay: as above; assay type: cell-based; conditions: primary hHeps, 4 h serum starved, 100 μg/ml competitor pre-incubated 30 min, then 20 μg/ml FITC-fNLPNTL 60 min at 37°C
Text: Human hepatocytes (hHeps) and LSECs (hLSECs) were isolated from encapsulated liver resections based on a method described elsewhere. The procedure involves collagenase perfusion through cut blood vessels exposed on the surface of the liver resection. hHeps were isolated by low speed differential centrifugation, and the hLSECs purified by immunomagnetic isolation using mouse anti-human CD32 (Fitzgeralg Industries International INC, North Acton, MA, USA) and Dynabeads® Sheep anti-mouse IgG (Thermo Scientific, Oslo, Norway). The viability of hLSECs as judged by trypan blue exclusion was 95%, and the yield of hLSECs varied from 1 to 10 million depending on the size of the liver resection. The purity of the hLSECs isolation was between 85 and 95%, as judged by light microscopy. This variation in purity is due to donor variation. […]
as §1, §2

| Substance | inhibition of uptake of FITC-fNLPNTL in mLSECs by competitor (mouse LSECs (mLSECs)) | inhibition of uptake of FITC-fNLPNTL in hLSECs by competitor (human LSECs (hLSECs)) | uptake in the liver compared to that of native fNLPNTL ([1]; 30 min post injection) | major organ of uptake ([1]; organs analysed 30 min post injection after systemic perfusion, radioactivity as % of total recovered) | inhibition of uptake of FITC-fNLPNTL in mHeps by competitor (mouse Heps (mHeps)) | inhibition of uptake of FITC-fNLPNTL in hHeps by competitor [2] |
| --- | --- | --- | --- | --- | --- | --- |
| FSA: Formaldehyde-treated bovine serum albumin, ligand specifically endocytosed by the LSECs scavenger receptors | inhibited | inhibited | – | – | – | – |
| Fluorescein-isothiocyanate- N-Formyl-Nle-Leu-Phe-Nle-Tyr-Lys [FITC-fNLPNTL, fluorescein isothiocyanate derivative of fNLPNTL from Thermo Scientific] | – | – | three-fold higher | liver | – | – |
| N-Formyl-Nle-Leu-Phe-Nle-Tyr-Lys [fNLPNTL, N-formyl peptide purchased from Phoenix Pharmaceuticals] | less marked effect | less marked effect | – | – | blocked | blocked |
